Laboratory results from paper PMC7377239, “Cardiovascular Effects of Polychlorinated Biphenyls and Their Major Metabolites” (Environmental Health Perspectives, 2020).
Counter-ions that a name gives are not always drawn. Like-named read-outs stand apart in the source and are kept apart here.

System: iCell cardiomyocytes (human iPSC-derived cardiomyocytes)
Assay: Intracellular Ca2+ flux / beating parameters in iCell cardiomyocytes (FLIPR tetra), 90 min or 24 h
Format: cell-based
Details: for activity at 0.01 µM / activity at 0.1 µM / activity at 1 µM / activity at 10 µM / activity at 100 µM: Homo sapiens, Cardiomyocyte, 0.00 µM = 100.00; for activity at 0.1 µM: 0.10 µM
Method in brief: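 Gelatin-plated iCell cardiomyocytes (5,000/well) were dye-loaded for 2 h at 37 °C, then exposed for 90 min or 24 h to PCBs/metabolites (5× plates at 0.05–500 µM; 0.5% DMSO final) in triplicate. Ca2+ flux was read for 100 s at 8 Hz and 37 °C. Peak height, frequency, spacing CV and decay/rise ratio were vehicle-normalized and fitted with a four-parameter logistic model, with POD set at 1 SD of vehicle.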

[1] = 1.5 h, read-out: cm.amp.avg.90min
[2] = 1.5 h, read-out: cm.amp.cv.90min
[3] = 1.5 h, read-out: cm.decay.rise.90min
[4] = 1.5 h, read-out: cm.spacing.cv.90min
[5] = 24 h, read-out: cm.amp.avg.24hrs
[6] = 24 h, read-out: cm.amp.cv.24hrs
[7] = 24 h, read-out: cm.decay.rise.24hrs
[8] = 24 h, read-out: cm.spacing.cv.24hrs

Oc1ccc(-c2ccc(Cl)cc2)cc1 [4'-OH PCB3]
activity at 0.01 µM [1]: 95.4% | activity at 0.01 µM [2]: 111% | activity at 0.01 µM (1.5 h, read-out: cm.bpm.90min): 97.8% | activity at 0.01 µM [3]: 97.5% | activity at 0.01 µM [4]: 120% | activity at 0.1 µM [1]: 101% | activity at 0.1 µM [2]: 107% | activity at 0.1 µM (1.5 h, read-out: cm.bpm.90min): 100% | activity at 0.1 µM [3]: 97.1% | activity at 0.1 µM [4]: 108% | activity at 1 µM [1]: 105% | activity at 1 µM [2]: 100% | activity at 1 µM (1.5 h, read-out: cm.bpm.90min): 104% | activity at 1 µM [3]: 95.9% | activity at 1 µM [4]: 106% | activity at 10 µM [1]: 97.2% | activity at 10 µM [2]: 100% | activity at 10 µM (1.5 h, read-out: cm.bpm.90min): 118% | activity at 10 µM [3]: 89.6% | activity at 10 µM [4]: 116% | activity at 100 µM [1]: 0% | activity at 100 µM [2]: 0% | activity at 100 µM (1.5 h, read-out: cm.bpm.90min): 0% | activity at 100 µM [3]: 0% | activity at 100 µM [4]: 0% | activity at 0.01 µM [5]: 91% | activity at 0.01 µM [6]: 37.2% | activity at 0.01 µM (24 h, read-out: cm.bpm.24hrs): 53.5% | activity at 0.01 µM [7]: 43% | activity at 0.01 µM [8]: 53.2% | activity at 0.1 µM [5]: 31.1% | activity at 0.1 µM [6]: 82.3% | activity at 0.1 µM (24 h, read-out: cm.bpm.24hrs): 54.4% | activity at 0.1 µM [7]: 43.8% | activity at 0.1 µM [8]: 53.7% | activity at 1 µM [5]: 32% | activity at 1 µM [6]: 67.1% | activity at 1 µM (24 h, read-out: cm.bpm.24hrs): 49.6% | activity at 1 µM [7]: 51% | activity at 1 µM [8]: 47.2% | activity at 10 µM [5]: 54.4% | activity at 10 µM [6]: 55% | activity at 10 µM (24 h, read-out: cm.bpm.24hrs): 48.7% | activity at 10 µM [7]: 58.5% | activity at 10 µM [8]: 51.4% | activity at 100 µM [5]: 0% | activity at 100 µM [6]: 0% | activity at 100 µM (24 h, read-out: cm.bpm.24hrs): 0% | activity at 100 µM [7]: 0% | activity at 100 µM [8]: 0%

COc1ccc(-c2ccc(Cl)cc2)cc1 [4'-OMe PCB3]
activity at 0.01 µM [1]: 96.9% | activity at 0.01 µM [2]: 88.9% | activity at 0.01 µM (1.5 h, read-out: cm.bpm.90min): 103% | activity at 0.01 µM [3]: 99.4% | activity at 0.01 µM [4]: 117% | activity at 0.1 µM [1]: 93.5% | activity at 0.1 µM [2]: 102% | activity at 0.1 µM (1.5 h, read-out: cm.bpm.90min): 100% | activity at 0.1 µM [3]: 102% | activity at 0.1 µM [4]: 99.4% | activity at 1 µM [1]: 106% | activity at 1 µM [2]: 117% | activity at 1 µM (1.5 h, read-out: cm.bpm.90min): 96.5% | activity at 1 µM [3]: 95% | activity at 1 µM [4]: 92% | activity at 10 µM [1]: 103% | activity at 10 µM [2]: 96% | activity at 10 µM (1.5 h, read-out: cm.bpm.90min): 107% | activity at 10 µM [3]: 95.2% | activity at 10 µM [4]: 96.4% | activity at 100 µM [1]: 83.2% | activity at 100 µM [2]: 175% | activity at 100 µM (1.5 h, read-out: cm.bpm.90min): 208% | activity at 100 µM [3]: 94.6% | activity at 100 µM [4]: 140% | activity at 0.01 µM [5]: 135% | activity at 0.01 µM [6]: 92.2% | activity at 0.01 µM (24 h, read-out: cm.bpm.24hrs): 111% | activity at 0.01 µM [7]: 98% | activity at 0.01 µM [8]: 116% | activity at 0.1 µM [5]: 30.6% | activity at 0.1 µM [6]: 60.1% | activity at 0.1 µM (24 h, read-out: cm.bpm.24hrs): 50.6% | activity at 0.1 µM [7]: 49% | activity at 0.1 µM [8]: 49.7% | activity at 1 µM [5]: 81.2% | activity at 1 µM [6]: 110% | activity at 1 µM (24 h, read-out: cm.bpm.24hrs): 95.5% | activity at 1 µM [7]: 98.7% | activity at 1 µM [8]: 85.6% | activity at 10 µM [5]: 94.7% | activity at 10 µM [6]: 93.1% | activity at 10 µM (24 h, read-out: cm.bpm.24hrs): 119% | activity at 10 µM [7]: 90.5% | activity at 10 µM [8]: 112% | activity at 100 µM [5]: 30.7% | activity at 100 µM [6]: 58% | activity at 100 µM (24 h, read-out: cm.bpm.24hrs): 81.2% | activity at 100 µM [7]: 38.5% | activity at 100 µM [8]: 76.1%

COc1ccc(-c2ccc(Cl)cc2)cc1 [4'-OMe-PCB 3, 4′-methoxy-4-chlorobiphenyl]
inotropic effect (cell beating parameters) (iPSC-CMs, concentration-response 0.01-100 μM, 90 min and 24 h): positive inotropic effects

O=S(=O)(O)Oc1ccc(-c2ccc(Cl)cc2)cc1 [4'-yl PCB 3 sulfate]
activity at 0.01 µM [1]: 91% | activity at 0.01 µM [2]: 97% | activity at 0.01 µM (1.5 h, read-out: cm.bpm.90min): 100% | activity at 0.01 µM [3]: 100% | activity at 0.01 µM [4]: 138% | activity at 0.1 µM [1]: 100% | activity at 0.1 µM [2]: 92% | activity at 0.1 µM (1.5 h, read-out: cm.bpm.90min): 100% | activity at 0.1 µM [3]: 98.1% | activity at 0.1 µM [4]: 107% | activity at 1 µM [1]: 98% | activity at 1 µM [2]: 75.3% | activity at 1 µM (1.5 h, read-out: cm.bpm.90min): 100% | activity at 1 µM [3]: 95.6% | activity at 1 µM [4]: 90.9% | activity at 10 µM [1]: 93% | activity at 10 µM [2]: 105% | activity at 10 µM (1.5 h, read-out: cm.bpm.90min): 104% | activity at 10 µM [3]: 97.7% | activity at 10 µM [4]: 104% | activity at 100 µM [1]: 0% | activity at 100 µM [2]: 0% | activity at 100 µM (1.5 h, read-out: cm.bpm.90min): 0% | activity at 100 µM [3]: 0% | activity at 100 µM [4]: 0% | activity at 0.01 µM [5]: 114% | activity at 0.01 µM [6]: 86.7% | activity at 0.01 µM (24 h, read-out: cm.bpm.24hrs): 102% | activity at 0.01 µM [7]: 89.3% | activity at 0.01 µM [8]: 96.8% | activity at 0.1 µM [5]: 46.3% | activity at 0.1 µM [6]: 44.4% | activity at 0.1 µM (24 h, read-out: cm.bpm.24hrs): 47.7% | activity at 0.1 µM [7]: 52.8% | activity at 0.1 µM [8]: 48.2% | activity at 1 µM [5]: 68% | activity at 1 µM [6]: 33.8% | activity at 1 µM (24 h, read-out: cm.bpm.24hrs): 46.8% | activity at 1 µM [7]: 51.1% | activity at 1 µM [8]: 55.8% | activity at 10 µM [5]: 89.3% | activity at 10 µM [6]: 96.4% | activity at 10 µM (24 h, read-out: cm.bpm.24hrs): 101% | activity at 10 µM [7]: 105% | activity at 10 µM [8]: 108% | activity at 100 µM [5]: 112% | activity at 100 µM [6]: 68.8% | activity at 100 µM (24 h, read-out: cm.bpm.24hrs): 79.2% | activity at 100 µM [7]: 113% | activity at 100 µM [8]: 103%
